Results on four compounds are retold here after patent US6432937B1, “Treatment for joint inflammation” (priority 1996, dated 2002).

Type in all cases: in vivo, human
In test [1] the test system is sacroiliitis and peripheral oligoarthritis. The experiment in a line: Example 1: patient with sacroiliitis and peripheral oligoarthritis treated with oral budesonide. Particulars: person; for Outcome of previous treatment: sacroiliitis and peripheral oligoarthritis for over 7 years, treatment before budesonide. How it is done: (§1) The invention is illustrated by the following examples where budesonide is administered orally using the Entocort™ preparation as described in EP-A-502092.
They were initially treated with 9 mg of budesonide once a day for the first four weeks and then the dose was reduced to 6 mg per day.
The normal value of morning stiffness is 0 min. The joint arthritic index was measured using the Lansbury index whose normal value is 0. The spinal movement was measured using Shober's Test whose normal value is from 5 to 6 cm. The joint pain at rest and in motion was estimated using a VAS (visual analogue scale) where 0 represents no pain and 10 very severe pain.

Another test concerns ankylosing spondylitis. The test can be described thus: Example 2: patient with ankylosing spondylitis treated with oral budesonide. Particulars: person; for Outcome of previous treatment: ankylosing spondylitis for 12 years, treatment before budesonide. Here is the method:
as §1
The tests were carried out in the same way as in Example 1 except that the laboratory inflammatory activity was measured using the ESR (erythrocyte sedimentation rate) whose normal value is less than 5 mm/h and the C-reactive protein plasma concentration which is usually less than 10 mg/litre.

Test [2] deals with rheumatoid arthritis. The experiment in a line: Example 3: patient with rheumatoid arthritis treated with oral budesonide. Particulars: person, 9 mg once a day, after 4 months. Here is the method: The invention is illustrated by the following examples where budesonide is administered orally using the Entocort™ preparation as described in EP-A-502092. […] They were diagnosed as having rheumatoid arthritis. They were treated with 9 mg of budesonide once a day. The tests for the symptoms were carried out in the same way as in Examples 1 and 2.

Test [3] concerns HLA-B27 associated reactive arthritis. The test can be described thus: Example 4: patient with HLA-B27 associated reactive arthritis treated with oral budesonide. Particulars: person. Here is the method: as §1
wherein the Ritchie index is an alternative joint arthritic index.

Test [4] deals with HLA-B27 associated sacroiliitis with peripheral arthropathies. The experiment in a line: Example 5: patient with HLA-B27 associated sacroiliitis with peripheral arthropathies treated with oral budesonide. Particulars: for Outcome of previous treatment: sacroiliitis with peripheral arthropathies for 8 years, treatment before budesonide. Here is the method: as §1
A patient had suffered from a HLA-B27 associated sacroiliitis with peripheral arthropathies for 8 years. […] At admittance to the hospital they suffered from direct pains of the sacroiliac joints and inflammation of the left knee and left ankle.

Test [5] deals with rheumatoid arthritis. The experiment in a line: Example 6: patient with rheumatoid arthritis treated with oral budesonide. The note with it: person, 9 mg per day, follow-up 4 weeks. How it is done: as §1
For test [6], the system named is rheumatoid arthritis. The experiment in a line: Example 7: patient with rheumatoid arthritis treated with oral budesonide. Particulars: person, 9 mg per day, three weeks. How it is done:
The invention is illustrated by the following examples where budesonide is administered orally using the Entocort™ preparation as described in EP-A-502092. A person had suffered from joint swelling and joint pains for about 5 months. At admittance they had symmetric swelling of finger joints, both knees and left ankle. They were on treatment with diclofenac. The rheumatoid factor test was positive and the diagnosis was rheumatoid arthritis. Diclofenac treatment was stopped and they were given 9 mg of budesonide per day.

Test [7] relates to rheumatoid arthritis. The test can be described thus: Example 8: patient with rheumatoid arthritis treated with oral budesonide. Particulars: 9 mg once a day. How it is done: as §1
A person had for 2 months suffered from rapidly progressive inflammations of the finger joints of both hands (metacarpophalangeal joints, proximal interphalangeal joints) and the wrists. The diagnosis was rheumatoid arthritis.

Setting [8] is: 9 mg once a day, oral, one month after start, before treatment 8.
Setting [9] is: person, oral, second follow-up three weeks after the first, before treatment 7.

Structures are written as SMILES.

As to `CCCC1O[C@@H]2C[C@H]3[C@@H]4CCC5=CC(=O)C=C[C@]5(C)[C@H]4[C@@H](O)C[C@]3(C)[C@]2(C(=O)CO)O1` (stereo partly shown) [budesonide], the “Spinal movement (Shober's Test)” value in test [1] (9 mg once a day four weeks then 6 mg per day, oral, after 2 months, before treatment 1, normal 5 to 6) amounted to 4 cm; with ankylosing spondylitis (9 mg once a day, oral, one month after start, before treatment 2.5), 3.5 cm. The “Joint pains at rest (VAS 0-10)” value was 1.5/1.5 in test [1] (9 mg once a day four weeks then 6 mg per day, oral, after 2 months, before treatment 5); 1 in the test with ankylosing spondylitis (setting [8]); 0/0 in test [4] (person, 9 mg per day, oral, 6 weeks after start, before treatment 9.5); 0/0 in the test on rheumatoid arthritis [6] (before treatment 10); 1/1 in the test on rheumatoid arthritis [7] (setting [9]). Moreover, the “Joint pains in motion (VAS 0-10)” value in test [1] (9 mg once a day four weeks then 6 mg per day, oral, after 2 months, before treatment 9.5) was 1.5/1.5; in the test on ankylosing spondylitis (setting [8]) it was 1.7; in test [4] (person, 9 mg per day, oral, 6 weeks after start, before treatment 8) it was 0/0; in the test with rheumatoid arthritis [6] (before treatment 5), 0/0; in the test with rheumatoid arthritis [7] (setting [9]), 1/1. For the same compound, the Morning stiffness in test [1] (9 mg once a day four weeks then 6 mg per day, oral, after 2 months, before treatment 120, normal 0) is given as 20 min; in the test with ankylosing spondylitis (9 mg once a day, oral, one month after start, before treatment 270), 0 min; with rheumatoid arthritis [2] (before treatment 180), 0 min; in test [3] (9 mg once a day, oral, three weeks, before treatment 120), 60 min; in test [4] (person, 9 mg per day, oral, 6 weeks after start, before treatment 180), 0 min; in the test with rheumatoid arthritis [5] (before treatment 120) it was 60 min. The compound also registered a Morning stiffness in the test on rheumatoid arthritis [6] (before treatment 210) of 15 min. Besides, the “Joint arthritic index (Lansbury index)” value is on record as 0 in test [1] (9 mg once a day four weeks then 6 mg per day, oral, after 2 months, before treatment 127, normal 0); 80 in the test with ankylosing spondylitis (9 mg once a day, oral, one month after start, before treatment 127); 0 with rheumatoid arthritis [2] (before treatment 205). Further, in the test with ankylosing spondylitis (9 mg once a day, oral, one month after start, before treatment 85, normal less than 5), the “ESR rate (erythrocyte sedimentation rate)” value is listed as 30 mm/h. In addition, the “C-reactive protein plasma concentration” value in the test with ankylosing spondylitis (9 mg once a day, oral, one month after start, before treatment 140, usually less than 10) stood at 25 mg/L. The C-reactive protein in the test on rheumatoid arthritis [2] (before treatment 41) amounted to 10 mg/L. In the test on rheumatoid arthritis [2] (before treatment 70), the ESR rate turned out to be 16 mm/h. In addition, the Ritchie index in test [3] (9 mg once a day, oral, three weeks, before treatment 9) was 4; in test [4] (person, 9 mg per day, oral, 6 weeks after start, before treatment 3) it was 0; with rheumatoid arthritis [5] (before treatment 8) it was 5; in the test on rheumatoid arthritis [6] (before treatment 19), 5; in the test on rheumatoid arthritis [7] (person, oral, first follow-up three weeks after start, before treatment 16), 2. The Joint arthritic index in test [3] (9 mg once a day, oral, three weeks, before treatment 112) was 6; in test [4] (person, 9 mg per day, oral, 6 weeks after start, before treatment 127) it was 0; with rheumatoid arthritis [5] (before treatment 64), 0; with rheumatoid arthritis [6] (before treatment 112), 15; with rheumatoid arthritis [7] (person, oral, first follow-up three weeks after start, before treatment 90), 0. The “Duration of treatment until they started to improve” value in test [4] (9 mg per day) worked out at 2 weeks. Also, in the test on rheumatoid arthritis [7], the “Time until they started to feel better” value is recorded as 14 days.

Turning to `CN(Cc1cnc2nc(N)nc(N)c2n1)c1ccc(C(=O)N[C@@H](CCC(=O)O)C(=O)O)cc1` [methotrexate], the “Outcome of previous treatment” value in test [1] is “without success”; with ankylosing spondylitis, “without success”; in test [4] (person), “without any apparent disease-modifying effect”.

With `C[C@]12C=CC(=O)C=C1CC[C@@H]1[C@@H]2[C@@H](O)C[C@@]2(C)[C@H]1CC[C@]2(O)C(=O)CO` [prednisolone], the “Outcome of previous treatment” value is “without success” in test [1]; “some relief of the joint pains” in test [3] (reactive arthritis, treatment before budesonide); “without any apparent disease-modifying effect” in test [4] (person).

Consider `O=C(O)c1cc(/N=N/c2ccc(S(=O)(=O)Nc3ccccn3)cc2)ccc1O` [sulphasalazine], for which the figures for the “Outcome of previous treatment” value (in the test with ankylosing spondylitis; in test [4] (person)) were “without success” and “without any apparent disease-modifying effect”, respectively.
